Measurements taken from patent publication US20250099483A1, “THERAPEUTIC COMPOUNDS” (priority 2021, published 2025).

What was measured:
Type in all cases: in vivo, human (healthy male volunteers)
[1] = Phase 1 trial: safety and tolerability of single and repeated oral doses
Experimental: (§1) A Phase 1, randomized, double-blind, placebo-controlled clinical trial was performed to assess the safety and pharmacokinetics (PK) of Compound 1 after single, escalating, and repeated oral doses in healthy male volunteers.
(§2) The primary objective was to assess the safety of escalating single oral doses of Compound 1 compared with placebo in healthy male volunteers. The secondary objective was to measure plasma pharmacokinetic (PK) parameters of Compound 1.
as §2, with “repeated” for “single”, “1 over 14 days” for “1”, “1 and to assess the concentration of Compound 1 in quadriceps muscle.” for “1.”

[2] = Phase 1 trial Part II: concentration in quadriceps muscle biopsy on Day 13; details: for Total Cpd I concentration / Unbound Cpd I concentration: quadriceps muscle, Day 13, at least 3 h post dose, median (range); for Kp: geom. mean (geom. % CV)
Experimental: The primary objective was to assess the safety of escalating repeated oral doses of Compound 1 over 14 days compared with placebo in healthy male volunteers. The secondary objective was to measure plasma pharmacokinetic (PK) parameters of Compound 1 and to assess the concentration of Compound 1 in quadriceps muscle. For Study part II (for all groups), Concentrations of Compound 1 were determined in muscle by performing muscle biopsy on quadriceps muscle on day 13, at least 3 hours after morning dose. Plasma and muscle samples were analyzed by LC-MS/MS method. Muscle biopsy was performed to assess the concentration of Compound 1 in quadriceps muscle. The biopsy was performed on Day 13 at 3 hours post dose at least. Table 10 summarizes the ratios of unbound respective total concentration at Day 13 at 3 hours post dose divided by the plasma concentration on Day 14 at 3 hours post dose.

[3] = Phase 1 trial Part II: plasma pharmacokinetics after repeated once-daily oral doses over 14 days; details: for Steady-state attained at day: once daily
Experimental: as §1
as §2, with “repeated” for “single”, “1 over 14 days” for “1”, “1 and to assess the concentration of Compound 1 in quadriceps muscle.” for “1.”
(§3) 4-[(7-methoxy-2,3-dihydro-1,4-benzothiazepin-4(5H)yl)methyl]benzoic acid hemi-fumarate (Compound 1) was administered in a gastro-resistant tablet according to EXAMPLE 5. The formulation contained 20 mg, 40 mg, or 200 mg Compound 1 (based on the mass of 4-[(7-methoxy-2,3-dihydro-1,4-benzothiazepin-4(5H)yl)methyl]benzoic acid). Placebo tablet according to Example 2 was used as comparator.
In Part II, participants from groups I, J, K, and L received repeated doses of 20 mg, 60 mg, 120 mg, or 240 mg Compound 1, respectively, or corresponding placebo once daily over a period of 14 days. Forty-one subjects completed Part II: 7/7/8/7 for cohorts I, J, K, L, and twelve placebo.
In Part II, blood samples were collected from each participant as follows: Day 1:12 samples from the pre-morning dose up to 16 h (pre-dose, 0.25, 0.5, 1, 1.5, 2, 3, 4, 6, 8, 12, and 16 h), Days 2-13:12 samples at pre-doses (i.e., morning dose); Day 14:16 samples from the pre-morning dose up to 96 (D14 pre-dose, 0.25, 0.5, 1, 1.5, 2, 3, 4, 6, 8, 12, and 16 h and D15-18:1 sample before theoretical morning dosing.
(§4) The area under the plasma concentration-time curve was calculated using a combined linear and logarithmic trapezoidal rule. The interpolation was linear in the constant and ascending parts of the plasma concentration-time profiles. The interpolation was logarithmic in the descending parts.
For Part II, the same approach was used on AUC, (Day 14) respectively AUC24 (Day 1), and Cmax.
(§5) Plasma and muscle samples were analyzed by LC-MS/MS method.

[4] = Phase 1 trial Part I: plasma pharmacokinetics after single ascending oral doses
Experimental: as §1, §2, §3
In part I, participants from groups A, B, C, D, and E received single doses of 40 mg, 80 mg, 160 mg, 240 mg, or 400 mg Compound 1, respectively, or corresponding placebo. Forty subjects completed part I: 30 active (6 per cohort) and 10 placebo.
In Part I, blood samples were collected from each participant as follows: at pre-dose, then 0.25, 0.5, 1, 1.5, 2, 3, 4, 5, 6, 8, 10, 12, 16, 24, 36, 48, 60, 72, and 96 hours after dosing.
as §4
For Part I, to assess the dose effect on the PK of Compound 1, the mean AUClast, and Cmax for each dose were calculated and were plotted by dose.
as §5

dose proportionality of median unbound and total concentrations in quadriceps muscle ([2]; Part II, 20-240 mg once daily): dose proportional | Kp at 3 h ([2]; male, human, quadriceps muscle / plasma, oral, summary, within the dose range 20-240 mg): 0.04 to 0.08 | Total Cpd I concentration ([2]; 20 mg once daily (n=7)): 171 (141-341) ng/g | Unbound Cpd I concentration ([2]; 20 mg once daily (n=7)): 22.0 (17.5-41.5) ng/g | Total Cpd I concentration ([2]; 60 mg once daily (n=7)): 489 (273-693) ng/g | Unbound Cpd I concentration ([2]; 60 mg once daily (n=7)): 80.3 (49.7-124) ng/g | Total Cpd I concentration ([2]; 120 mg once daily (n=8)): 913 (614-1207) ng/g | Unbound Cpd I concentration ([2]; 120 mg once daily (n=8)): 104 (63.2-196) ng/g | Total Cpd I concentration ([2]; 240 mg once daily (n=7)): 1480 (890-1745) ng/g | Unbound Cpd I concentration ([2]; 240 mg once daily (n=7)): 242 (196-452) ng/g | Kpu ([2]; summary, within the dose range 20-240 mg): 0.008-0.01 | Kp ([2]; total muscle concentration Day 13, 3 h post dose / plasma concentration Day 14, 3 h post dose, 20 mg once daily): 0.0808 (65.3) (ng/g)/(ng/mL) | Kp ([2]; total muscle concentration Day 13 / plasma concentration Day 14, 3 h post dose, 60 mg once daily): 0.0640 (22.6) (ng/g)/(ng/mL) | Kp ([2]; total muscle concentration Day 13 / plasma concentration Day 14, 3 h post dose, 120 mg once daily): 0.0636 (49.9) (ng/g)/(ng/mL) | Kp ([2]; total muscle concentration Day 13 / plasma concentration Day 14, 3 h post dose, 240 mg once daily): 0.0440 (30.0) (ng/g)/(ng/mL) | Steady-state attained at day ([3]; 240 mg cohort): 5 | Steady-state attained at day ([3]; 20, 60, and 120 mg cohorts): 4 | inter-individual variability (Cmax and AUC24) ([3]; Part II, 20, 60, 120, and 240 mg/d): low | Steady-state attained after days of daily treatment ([3]; Part II, across cohorts 20-240 mg once daily): 3 to 7 days | dose proportionality of AUCτ resp. AUC0-24 and Cmax ([3]; Part II, graphical inspections): dose proportionality | accumulation ratios for Cmax and AUC24 ([3]; after 14-day repeated administrations of 20, 60, 120, and 240 mg/d): 1.4-1.8 | Tmax ([3]; male, human, plasma, after 14-days of repeated once daily oral administrations of 20 mg (so in the source), read-out: median Tmax): 3 to 3.5 h | dose proportionality of AUClast and Cmax ([4]; Part I, graphical inspections): dose proportionality | inter-individual variability across treatment groups ([4]; Part I, single oral doses): low | tlag ([4]; after single oral administration at 20 to 400 mg, gastro-resistant tablet): less than 2 hours | absorption ([4]; single oral administration, after a lag time consistent with the gastro-resistant tablet): rapid absorption
SMILES: COc1ccc2c(c1)CN(Cc1ccc(C(=O)O)cc1)CCS2.O=C(O)/C=C/C(=O)O [Compound 1, 4-[(7-methoxy-2,3-dihydro-1,4-benzothiazepin-4(5H)yl)methyl]benzoic acid hemifumarate]
tolerability ([1]; at the doses and dose regimens tested): well tolerated | serious adverse events ([1]; single doses and 14-day repeated doses tested): No serious adverse events were reported | linearity of pharmacokinetics with time and dose ([3]; single and repeat dose studies): No evidence of non-linearity with the time and dose | linearity of pharmacokinetics with dose ([4]; Part I, single oral doses): No evidence of non-linearity with the dose
